For three compounds, inhibition results are on record in ChEMBL document CHEMBL4052759, “Discovery of DS79182026: A potent orally active hepcidin production inhibitor” (Bioorg Med Chem Lett, 2017).

The test system of assay [1] is Tyrosine-protein kinase ABL1 (Homo sapiens), P00519 [T315I]. Nature of the assay: Inhibition of Abl T315I mutant (unknown origin) at 0.49 uM relative to control.
Assay [2] concerns the target Protein kinase C eta type (Homo sapiens) (UniProt P24723). Nature of the assay: Inhibition of PKC-eta (unknown origin) at 0.49 uM relative to control.
The target of assay [3] is Ephrin type-A receptor 8 (Homo sapiens) (UniProt P29322). The experiment in a line: Inhibition of EPHA8 (unknown origin) at 0.49 uM relative to control.
Assay [4] concerns the target Ephrin type-A receptor 5 (Homo sapiens) (UniProt P54756). Nature of the assay: Inhibition of EPHA5 (unknown origin) at 0.49 uM relative to control.
In assay [5] the target is MAP kinase-activated protein kinase 3 (Homo sapiens) (UniProt Q16644). The experiment in a line: Inhibition of MAPKAPK3 (unknown origin) at 0.49 uM relative to control.
In assay [6] the target is T1, Serine/threonine-protein kinase Sgk1 (Homo sapiens) (UniProt O00141).
T1 sequence (whole entry): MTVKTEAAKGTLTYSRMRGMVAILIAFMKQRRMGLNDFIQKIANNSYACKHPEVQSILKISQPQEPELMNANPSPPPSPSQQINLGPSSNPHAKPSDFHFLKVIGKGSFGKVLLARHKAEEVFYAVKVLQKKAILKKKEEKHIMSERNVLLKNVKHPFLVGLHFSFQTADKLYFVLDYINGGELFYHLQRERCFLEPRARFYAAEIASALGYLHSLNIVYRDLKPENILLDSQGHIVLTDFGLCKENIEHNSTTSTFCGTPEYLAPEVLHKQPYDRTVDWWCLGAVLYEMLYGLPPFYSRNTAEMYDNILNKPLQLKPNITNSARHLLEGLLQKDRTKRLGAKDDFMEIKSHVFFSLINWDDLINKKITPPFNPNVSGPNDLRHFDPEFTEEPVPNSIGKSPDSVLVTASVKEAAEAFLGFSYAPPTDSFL
The experiment in a line: Inhibition of SGK1 (unknown origin) at 0.49 uM relative to control.

Assay [7] deals with Fibroblast growth factor receptor 4 (Homo sapiens), P22455 [V550L]. Nature of the assay: Inhibition of FGFR4 V550L mutant (unknown origin) at 0.49 uM relative to control.
For assay [8], the target named is Protein kinase C alpha type (Homo sapiens) (UniProt P17252). Nature of the assay: Inhibition of PKC-alpha (unknown origin) at 0.49 uM relative to control.
Assay [9] addresses Homeodomain-interacting protein kinase 2 (Homo sapiens) (UniProt Q9H2X6). Nature of the assay: Inhibition of HIPK2 (unknown origin) at 0.49 uM relative to control.
The target in assay [10] is Receptor-type tyrosine-protein kinase FLT3 (Homo sapiens) (UniProt P36888). The experiment in a line: Inhibition of FLT3 (unknown origin) at 0.49 uM relative to control.
In assay [11] the target is Mitogen-activated protein kinase 14 (Homo sapiens) (UniProt Q16539). The experiment in a line: Inhibition of p38a (unknown origin) at 0.49 uM relative to control.
In assay [12] the target is Tyrosine-protein kinase Lck (Homo sapiens) (UniProt P06239). The experiment in a line: Inhibition of LCK (unknown origin) at 0.078 uM relative to control.
Assay [13] concerns the target Hepatocyte growth factor receptor (Homo sapiens) (UniProt P08581). Nature of the assay: Inhibition of MET (unknown origin) at 0.078 uM relative to control.
The target of assay [14] is T2, Protein kinase C zeta type (Homo sapiens) (UniProt Q05513).
T2 sequence (whole entry): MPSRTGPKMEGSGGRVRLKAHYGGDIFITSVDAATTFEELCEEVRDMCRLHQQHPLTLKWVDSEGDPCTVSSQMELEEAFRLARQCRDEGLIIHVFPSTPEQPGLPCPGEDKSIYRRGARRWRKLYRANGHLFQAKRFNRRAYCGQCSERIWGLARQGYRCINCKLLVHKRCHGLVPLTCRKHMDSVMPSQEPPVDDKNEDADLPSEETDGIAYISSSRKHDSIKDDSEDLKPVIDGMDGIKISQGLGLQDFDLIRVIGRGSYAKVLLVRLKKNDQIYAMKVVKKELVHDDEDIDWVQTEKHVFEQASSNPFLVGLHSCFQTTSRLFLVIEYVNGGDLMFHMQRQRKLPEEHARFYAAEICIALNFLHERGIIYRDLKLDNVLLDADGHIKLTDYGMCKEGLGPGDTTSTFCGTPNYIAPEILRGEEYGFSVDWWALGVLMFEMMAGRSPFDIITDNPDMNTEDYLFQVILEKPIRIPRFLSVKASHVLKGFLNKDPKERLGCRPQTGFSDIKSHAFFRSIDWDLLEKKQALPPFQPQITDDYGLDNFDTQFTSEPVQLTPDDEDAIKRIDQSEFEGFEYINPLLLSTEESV
Nature of the assay: Inhibition of PKC-zeta (unknown origin) at 0.078 uM relative to control.

Assay [15] addresses Rho-associated protein kinase 2 (Homo sapiens) (UniProt O75116). The experiment in a line: Inhibition of ROCK2 (unknown origin) at 0.078 uM relative to control.
Assay [16] concerns the target T3, Interleukin-1 receptor-associated kinase 4 (Homo sapiens) (UniProt Q9NWZ3).
T3 sequence (whole entry): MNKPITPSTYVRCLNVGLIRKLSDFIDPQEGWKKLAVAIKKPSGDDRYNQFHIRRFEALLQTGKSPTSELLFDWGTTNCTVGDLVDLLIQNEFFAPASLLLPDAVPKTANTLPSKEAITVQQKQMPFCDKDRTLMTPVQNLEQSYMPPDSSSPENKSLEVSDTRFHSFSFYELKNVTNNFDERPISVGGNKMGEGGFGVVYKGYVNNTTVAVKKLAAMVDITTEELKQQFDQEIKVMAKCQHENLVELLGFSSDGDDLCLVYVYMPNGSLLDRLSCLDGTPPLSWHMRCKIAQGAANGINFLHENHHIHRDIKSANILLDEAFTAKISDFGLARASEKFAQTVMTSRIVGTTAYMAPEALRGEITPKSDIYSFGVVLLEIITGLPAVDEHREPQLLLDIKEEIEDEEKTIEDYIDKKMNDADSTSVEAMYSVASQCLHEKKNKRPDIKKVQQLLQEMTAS
Nature of the assay: Inhibition of IRAK4 (unknown origin) at 0.45 uM relative to control.

The target of assay [17] is Tyrosine-protein kinase Lyn (Homo sapiens) (UniProt P07948). The experiment in a line: Inhibition of LYNB (unknown origin) at 0.45 uM relative to control.
Assay [18] has as its target Tyrosine-protein kinase Fes/Fps (Homo sapiens) (UniProt P07332). Nature of the assay: Inhibition of FES (unknown origin) at 0.45 uM relative to control.
Assay [19] has as its target SRSF protein kinase 2 (Homo sapiens) (UniProt P78362). Nature of the assay: Inhibition of SRPK2 (unknown origin) at 0.45 uM relative to control.
The subject of assay [20] is Tyrosine-protein kinase ABL1 (Homo sapiens), P00519 [G250E]. Nature of the assay: Inhibition of ABL1 G250E mutant (unknown origin) at 0.45 uM relative to control.
Assay [21] has as its target cAMP-dependent protein kinase catalytic subunit PRKX (Homo sapiens) (UniProt P51817). The experiment in a line: Inhibition of PRKX (unknown origin) at 0.45 uM relative to control.

SMILES strings stand for the structures.

For orientation: inhibition means the change of the read-out against control, counted positive when it falls. As for `Cc1[nH]nc(C2CC2)c1-c1ccc2c(NC(=O)C3CC3)noc2c1`, the inhibition is 11% in assay [1]; 7% in [2]; -2.7% in [3]; 3% in assay [4]; -7.3% in assay [5]; 2.3% in [6]. The inhibition in assay [7] was 4%; in [8], 2%; in assay [9] it was 2.7%; in assay [10], 3.7%; in assay [11], -1.7%.

`COC(=O)Nc1noc2cc(-c3c(-c4ccccn4)n[nH]c3C)ccc12`: the inhibition in [12] was 4.7%; in [13], 1%; in assay [14], 2.7%; in assay [15], -2%.

Consider `Cc1n[nH]c(C)c1-c1ccc2c(NC(=O)c3ccc(N4CCN(C)CC4)cc3)n[nH]c2c1`, for which the inhibition in assay [16] was 11%; in assay [17], 24.3%; in assay [18] it was -3.3%; in [19] it was 0.3%; in assay [20] it was 68%; in assay [21] it was 0.3%.
